Read-outs that look alike come from different tables or passages of the source. Blank lines part the entries; values can stand above or below the compound they belong to.
Tests used:
AfChiB1 [1] = target: T1, AfChiB1 (Aspergillus fumigatus, UniProt Q873X9); test: biochemical; type: biochemical
Text: AfChiB1 was expressed, purified and inhibition studies performed as previously described [F. V. Rao, D. R. Houston, R. G. Boot, J. M. F. G. Aerts, M. Hodkinson, D. J. Adams, K. Shiomi, S. Omura, and D. M. F. van Aalten, Specificity and affinity of natural product cyclopentapeptide inhibitors against Aspergillus fumigatus, human and bacterial chitinases, Chemistry & Biology, 12, 65-76 (2005)].
Briefly, AfChiB1 was overexpressed as a GST-fusion protein in E. coli and purified using a combination of affinity and size-exclusion chromatography.
AfChiB1 inhibition was studied using the fluorogenic substrate 4-methylumbelliferyl-β-D-N,N′-diacetylchitobiose (4MU-GlcNAc2; Sigima). Briefly, in a final volume of 50 μl, 2 nM of enzyme was incubated with 20 μM substrate in McIlvain buffer (100 mM citric acid, 200 mM sodium phosphate, pH 5.5) containing 0.1 mg/ml BSA, for 10 min at 37° C. in the presence of different concentration of inhibitors. After the addition of 25 μl of 3 M glycine-NaOH, pH 10.3, the fluorescence of the liberated 4-methylumbelliferone (4MU) was quantified using a Flx 800 microtitrepiate fluorescence reader (Bio-Tek Instruments Inc.), with excitation and emission wavelengths of 360 nm and 460 nm, respectively, using 40 nm slits. Experiments were performed in triplicate. […]
The mode of action was determined by plotting the data as Lineweaver-Burk plots, and by fitting all data to the standard competitive inhibition equation with the GraFit software [R. J. Leatherbarrow, GraFit Version 5, Erithacus Software Ltd., Horley, U.K., (2001)].
The compounds according to an embodiment of the present invention were prepared according to the following methods, and further evaluated as inhibitors against AfChiB using the fluorescence-based assay described herein using 4methylumbelliferyl β-D-N,N-deacetyl-chitobioside as substrate. The assay results are shown in the accompanying tables 3-6.

[2] = target: H.Chito (human chitotriosidase) (Homo sapiens, UniProt Q13231); test: Further inhibition studies, human chitotriosidase (Table 2); type: biochemical
Text: (§1) Inhibition Studies on Human and Mouse AMCase and Chitotriosidase

H.AMCase (human AMCase) = H.AMCase (human AMCase) (Homo sapiens, UniProt Q9BZP6); test: Further inhibition studies, human AMCase (Table 2); type: biochemical
Text: as §1

[3] = target: M.Chito (mouse chitotriosidase) (Mus musculus, UniProt Q9D7Q1); test: Further inhibition studies, mouse chitotriosidase (Table 2); type: biochemical
Text: as §1

M.AMCase (mouse AMCase) = M.AMCase (mouse AMCase) (Mus musculus, UniProt Q91XA9); test: Further inhibition studies, mouse AMCase (Table 2); type: biochemical
Text: as §1

[4] = target: cellulase from Aspergillus niger; test: Cellulase assay, 4-methylumbelliferyl-β-D-cellobioside; type: biochemical; settings: 5 nM enzyme, 20 μM substrate, 30 min at 37° C.
Method: (§2) Additionally, for comparison, inhibition studies were performed on celluase from Aspergillus niger, phosphodiesterase 4A and lysozyme.
Commercially available […] from Aspergillus niger (Sigma: C-1184) was assayed, using the fluorogenic substrate 4-methylumbelliferyl-β-D-cellobioside (Sigma M-6018). In a final volume of 50 μl, 5 nM of enzyme was incubated with 20 μM substrate in McIlvain buffer containing 0.1 mg/ml BSA, for 30 min at 37° C. in the presence of different concentration of inhibitors. After the addition of 25 μl of 3 M glycine-NaOH, pH 10.3, the fluorescence of the liberated 4-methylumbelliferone (4MU) was quantified using an Flx 800 microtitreplate fluorescence reader (Bio-Tek Instruments Inc.), with excitation and emission wavelengths of 360 nm and […], respectively, using 40 nm slits. Experiments were performed in triplicate. Production of 4MU was linear with time for the incubation period used, and less than 10% of available substrate was hydrolyzed.

human chitotriosidase = target: T2, human chitotriosidase (Homo sapiens, UniProt Q13231); test: Human chitotriosidase inhibition, 4MU-GlcNAc2 chitinase assay; type: biochemical; settings: 22 μM substrate, 1 nM enzyme, 30° C. for 30 minutes; read-out: hCHT IC50
T2 construct: made in house; host or cells: HEK 293 (transient transfection, supernatant)

human AMCase = target: T3, human AMCase (Homo sapiens, UniProt Q9BZP6); test: Human AMCase inhibition, 4MU-GlcNAc2 chitinase assay; type: biochemical; settings: 1 mM inhibitor
T3 construct: made in house; host or cells: HEK 293 (transient transfection, supernatant)

[5] = target: T4, Chicken egg white lysozyme (Gallus gallus, UniProt P00698); test: Lysozyme assay, EnzCheck Lysozyme kit; type: biochemical; settings: 500 μM inhibitor
T4 construct: Chicken egg white lysozyme and its substrate; purchased Molecular probes EnzCheck Lysozyme kit; host or cells: chicken egg white
Method: as §2
Lysozyme was assayed using the EnzCheck Lysozyme kit from Molecular probes as described by the manufacturer. Chicken egg white lysozyme and its substrate, fluorescein labeled Micrococcus lysodeikyius cell wall (DQ Lysozyme substrate) were used to determine compound inhibition. Briefly, 6.25 units of lysozyme were incubated with 25 μg of DQ substrate with or without various concentrations of inhibitor in a total volume of 100 μl at 37° C. for 30 minutes. The fluorescence was determined using excitation and emission wavelengths of 360 nm and 460 nm, respectively. The potency of inhibitors (IC50) was determined from a dose-response curve. Experiments were performed in triplicate.

[6] = target: Phosphodiesterase 4A (PDE4A) (Homo sapiens, UniProt P27815); settings: PDE-SPA assay, result in words
AfChiB1 [7] = target: T1, AfChiB1; test: AfChiB1 binding (Kd)
[8] = Table 5, N3 compounds, against AfChiB, read-out: IC50
[9] = Table 6, N7 compounds, against AfChiB, read-out: IC50
[10] = Trio substrate, pH 5.2, read-out: H.Chito Trio pH 5.2 (IC50)
[11] = human AMCase, Bio substrate, pH 4.5, read-out: H.AMCase Bio pH 4.5 (IC50)
[12] = mouse chitotriosidase, Bio substrate, pH 5.2, read-out: M.Chito Bio pH 5.2 (IC50)
[13] = mouse AMCase, Bio substrate, pH 4.5, read-out: M.AMCase Bio pH 4.5 (IC50)
[14] = 2 nM enzyme, 20 μM substrate, pH 5.5, 10 min at 37° C., read-out: AfChiB1 IC50

Chain of M.Chito (mouse chitotriosidase) (Q9D7Q1 22-464): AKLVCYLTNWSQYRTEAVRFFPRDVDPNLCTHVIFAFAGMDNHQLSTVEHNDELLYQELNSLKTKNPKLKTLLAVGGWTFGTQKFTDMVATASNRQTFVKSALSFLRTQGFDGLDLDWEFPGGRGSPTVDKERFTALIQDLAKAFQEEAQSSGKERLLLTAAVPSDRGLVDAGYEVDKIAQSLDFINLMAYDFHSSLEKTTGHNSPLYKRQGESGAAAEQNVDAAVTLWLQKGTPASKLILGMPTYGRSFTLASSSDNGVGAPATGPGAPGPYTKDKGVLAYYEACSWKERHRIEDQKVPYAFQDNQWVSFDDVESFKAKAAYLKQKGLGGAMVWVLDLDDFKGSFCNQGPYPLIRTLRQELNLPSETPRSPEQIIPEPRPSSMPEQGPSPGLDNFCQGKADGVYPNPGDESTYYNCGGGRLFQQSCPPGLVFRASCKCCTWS
T4 sequence (P00698 19-147): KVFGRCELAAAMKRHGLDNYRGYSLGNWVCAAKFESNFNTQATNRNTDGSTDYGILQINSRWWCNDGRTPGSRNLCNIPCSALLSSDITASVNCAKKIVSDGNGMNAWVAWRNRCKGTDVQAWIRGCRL
Chain of M.AMCase (mouse AMCase) (Q91XA9 22-473): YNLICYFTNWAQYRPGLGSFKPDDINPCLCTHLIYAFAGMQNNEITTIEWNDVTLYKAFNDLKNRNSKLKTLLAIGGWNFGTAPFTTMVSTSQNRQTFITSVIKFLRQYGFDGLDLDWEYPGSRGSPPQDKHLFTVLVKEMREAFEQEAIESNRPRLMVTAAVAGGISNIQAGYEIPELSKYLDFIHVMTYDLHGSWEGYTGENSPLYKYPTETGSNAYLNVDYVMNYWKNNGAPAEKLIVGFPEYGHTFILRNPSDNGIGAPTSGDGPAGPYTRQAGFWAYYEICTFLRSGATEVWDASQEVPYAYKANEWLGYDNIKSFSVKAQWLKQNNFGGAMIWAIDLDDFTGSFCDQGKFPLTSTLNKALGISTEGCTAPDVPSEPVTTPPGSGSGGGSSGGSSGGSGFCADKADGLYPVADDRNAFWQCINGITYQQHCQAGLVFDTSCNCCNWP
Chain of H.Chito (human chitotriosidase) (Q13231 22-466): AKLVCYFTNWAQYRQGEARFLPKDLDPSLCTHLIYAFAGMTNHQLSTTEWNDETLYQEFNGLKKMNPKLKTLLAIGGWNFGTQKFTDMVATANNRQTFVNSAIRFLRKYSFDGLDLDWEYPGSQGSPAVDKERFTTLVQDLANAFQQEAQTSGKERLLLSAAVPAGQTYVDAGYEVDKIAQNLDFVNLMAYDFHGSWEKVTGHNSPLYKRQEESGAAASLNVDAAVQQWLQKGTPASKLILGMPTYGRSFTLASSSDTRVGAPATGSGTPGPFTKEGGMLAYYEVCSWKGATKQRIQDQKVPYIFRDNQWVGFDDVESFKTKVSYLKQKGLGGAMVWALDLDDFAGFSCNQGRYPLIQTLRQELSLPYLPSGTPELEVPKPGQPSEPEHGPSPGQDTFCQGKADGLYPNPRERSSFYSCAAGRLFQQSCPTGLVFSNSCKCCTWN
Chain of H.AMCase (human AMCase) (Q9BZP6 22-476): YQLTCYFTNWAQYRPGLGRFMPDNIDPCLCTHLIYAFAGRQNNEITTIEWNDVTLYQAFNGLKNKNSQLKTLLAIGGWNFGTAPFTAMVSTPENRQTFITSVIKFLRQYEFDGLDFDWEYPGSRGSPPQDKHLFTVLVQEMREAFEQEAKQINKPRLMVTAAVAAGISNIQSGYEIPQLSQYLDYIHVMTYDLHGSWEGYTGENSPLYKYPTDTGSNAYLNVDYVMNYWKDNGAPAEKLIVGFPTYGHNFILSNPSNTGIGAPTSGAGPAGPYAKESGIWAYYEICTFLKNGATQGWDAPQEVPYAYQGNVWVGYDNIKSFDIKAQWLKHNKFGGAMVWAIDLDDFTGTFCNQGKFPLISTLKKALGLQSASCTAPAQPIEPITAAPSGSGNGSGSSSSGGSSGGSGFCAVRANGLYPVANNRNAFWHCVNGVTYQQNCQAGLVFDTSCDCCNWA
T2 sequence (Q13231 22-466): as the sequence (Q13231 22-466) above
T3 sequence (Q9BZP6 22-476): as the sequence (Q9BZP6 22-476) above
Chain of Phosphodiesterase 4A (PDE4A) (P27815 whole entry): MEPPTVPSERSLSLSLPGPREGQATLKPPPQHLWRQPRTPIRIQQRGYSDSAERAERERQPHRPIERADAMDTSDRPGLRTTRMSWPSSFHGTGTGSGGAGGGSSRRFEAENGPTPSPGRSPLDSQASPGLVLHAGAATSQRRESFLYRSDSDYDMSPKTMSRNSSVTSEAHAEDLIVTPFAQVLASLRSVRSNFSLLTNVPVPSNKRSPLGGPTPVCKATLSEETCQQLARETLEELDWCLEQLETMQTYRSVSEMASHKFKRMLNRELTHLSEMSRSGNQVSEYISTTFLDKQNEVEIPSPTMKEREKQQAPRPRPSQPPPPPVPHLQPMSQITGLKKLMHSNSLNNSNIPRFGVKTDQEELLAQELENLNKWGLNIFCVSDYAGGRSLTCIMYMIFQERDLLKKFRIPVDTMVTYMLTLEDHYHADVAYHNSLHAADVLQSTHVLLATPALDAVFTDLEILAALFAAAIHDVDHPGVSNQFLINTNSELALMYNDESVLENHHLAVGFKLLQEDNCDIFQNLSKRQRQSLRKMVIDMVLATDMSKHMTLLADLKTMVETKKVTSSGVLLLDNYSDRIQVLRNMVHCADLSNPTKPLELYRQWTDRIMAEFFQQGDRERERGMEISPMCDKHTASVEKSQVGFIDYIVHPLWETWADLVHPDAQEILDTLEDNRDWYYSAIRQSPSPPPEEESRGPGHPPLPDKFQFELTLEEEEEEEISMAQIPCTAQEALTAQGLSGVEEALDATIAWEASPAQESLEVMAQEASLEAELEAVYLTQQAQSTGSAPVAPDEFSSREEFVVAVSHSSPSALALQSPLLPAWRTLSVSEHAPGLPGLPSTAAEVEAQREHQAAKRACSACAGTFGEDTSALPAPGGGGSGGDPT

SMILES: Cn1cnc2c1c(=O)n(CCn1c(=O)c3c(ncn3C)n(C)c1=O)c(=O)n2C [Compound 1]
IC50 (AfChiB1 [1]): 6 µM

SMILES: Cn1cnc2c1c(=O)n(CCCn1c(=O)c3c(ncn3C)n(C)c1=O)c(=O)n2C [Compound 2]
IC50 (AfChiB1 [1]): 0.23 µM

SMILES: Cn1cnc2c1c(=O)n(CCCCn1c(=O)c3c(ncn3C)n(C)c1=O)c(=O)n2C [Compound 3]
IC50 (AfChiB1 [1]): 6 µM

IC50 (AfChiB1 [1]; [8]): 0.086 µM
SMILES: Cn1cnc2[nH]c(=O)n(CCCn3c(=O)c4c(ncn4C)n(C)c3=O)c(=O)c21 [Compound 9]

IC50 (AfChiB1 [1]; [8]): 0.31 µM
SMILES: CCn1c(=O)n(CCCn2c(=O)c3c(ncn3C)n(C)c2=O)c(=O)c2c1ncn2C [Compound 10]

IC50 (AfChiB1 [1]; [8]): 0.14 µM
SMILES: C=CCn1c(=O)n(CCCn2c(=O)c3c(ncn3C)n(C)c2=O)c(=O)c2c1ncn2C [Compound 11]

IC50 (AfChiB1 [1]; [8]): 0.52 µM
SMILES: CC(C)n1c(=O)n(CCCn2c(=O)c3c(ncn3C)n(C)c2=O)c(=O)c2c1ncn2C [Compound 12]

IC50 (AfChiB1 [1]; [8]): 0.078 µM
SMILES: Cn1cnc2c1c(=O)n(CCCn1c(=O)c3c(ncn3C)n(CCN)c1=O)c(=O)n2C [Compound 13]

IC50 (AfChiB1 [1]; [8]): 0.18 µM
SMILES: Cn1cnc2c1c(=O)n(CCCn1c(=O)c3c(ncn3C)n(CCO)c1=O)c(=O)n2C [Compound 14]

IC50 (AfChiB1 [1]; [8]): 0.44 µM
SMILES: Cn1cnc2c1c(=O)n(CCCn1c(=O)c3c(ncn3C)n(CCCN)c1=O)c(=O)n2C [Compound 15]

IC50 (AfChiB1 [1]; [8]): 0.44 µM
SMILES: Cn1cnc2c1c(=O)n(CCCn1c(=O)c3c(ncn3C)n(CCCO)c1=O)c(=O)n2C [Compound 16]

IC50 (AfChiB1 [1]; [9]): 0.2 µM
SMILES: Cn1cnc2c1c(=O)n(CCCn1c(=O)c3nc[nH]c3n(C)c1=O)c(=O)n2C [Compound 17]

IC50 (AfChiB1 [1]; [9]): 0.16 µM
SMILES: Cn1cnc2c1c(=O)n(CCCn1c(=O)c3c(ncn3CCC(=O)O)n(C)c1=O)c(=O)n2C [Compound 19]

IC50 (AfChiB1 [1]; [9]): 0.14 µM
SMILES: COC(=O)CCCn1cnc2c1c(=O)n(CCCn1c(=O)c3c(ncn3C)n(C)c1=O)c(=O)n2C [Compound 20]

IC50 (AfChiB1 [1]; [9]): 0.2 µM
SMILES: Cn1cnc2c1c(=O)n(CCCn1c(=O)c3c(ncn3CCCC(=O)O)n(C)c1=O)c(=O)n2C [Compound 21]

IC50 (AfChiB1 [1]; [9]): 0.3 µM
SMILES: COC(=O)CCCCn1cnc2c1c(=O)n(CCCn1c(=O)c3c(ncn3C)n(C)c1=O)c(=O)n2C [Compound 22]

IC50 (AfChiB1 [1]; [9]): 0.36 µM
SMILES: Cn1cnc2c1c(=O)n(CCCn1c(=O)c3c(ncn3CCCCC(=O)O)n(C)c1=O)c(=O)n2C [Compound 23]

IC50 (AfChiB1 [1]; [9]): 0.16 µM
SMILES: COC(=O)C=CCn1cnc2c1c(=O)n(CCCn1c(=O)c3c(ncn3C)n(C)c1=O)c(=O)n2C [Compound 24]

IC50 (AfChiB1 [1]; [9]): 0.42 µM
SMILES: Cn1cnc2c1c(=O)n(CCCn1c(=O)c3c(ncn3CC=CC(=O)O)n(C)c1=O)c(=O)n2C [Compound 25]

SMILES: Cn1c(=O)c2c(ncn2C)n(C)c1=O [caffeine]
IC50 ([2]; H.Chito Bio pH 5.2 (IC50), Bio substrate): 650 µM | IC50 [2, 10]: 850 µM | IC50 (H.AMCase (human AMCase); [11]): 500 µM | IC50 [3, 12]: > 1000 µM | IC50 (M.AMCase (mouse AMCase); [13]): 800 µM | IC50 [4]: 1250 ± 278 µM | IC50 (human chitotriosidase): 257 ± 8 µM | hAMCase activity at 1 mM (human AMCase): 36% | Egg white lysozyme activity at 500 μM [5]: 100%

SMILES: CC(=O)CCCCn1c(=O)c2c(ncn2C)n(C)c1=O [pentoxifylline]
IC50 [2, 10]: 400 µM | IC50 (H.AMCase (human AMCase); [11]): 400 µM | IC50 [3, 12]: ~1000 µM | IC50 (M.AMCase (mouse AMCase); [13]): 400 µM | IC50 [4]: 881 ± 319 µM | IC50 (human chitotriosidase): 98 µM | IC50 (AfChiB1 [1]; [14]): 126 µM | Ki (AfChiB1 [1]; competitive inhibitor, 5-30 μM substrate, fit to competitive inhibition equation): 37 µM | inhibition of human phosphodiesterase-4 [6]: barely detectable | hAMCase activity at 1 mM (human AMCase): 49% | Egg white lysozyme activity at 500 μM [5]: 100% | Kd (AfChiB1 [7]): 43 ± 10 µM

SMILES: Cn1c(=O)c2[nH]cnc2n(C)c1=O [theophylline]
IC50 (H.AMCase (human AMCase)): ~2000 µM | IC50 [3]: > 2000 µM | IC50 (M.AMCase (mouse AMCase)): ~1600 µM | IC50 [4]: 1010 ± 159 µM | IC50 (AfChiB1 [1]; [14]): 1500 µM | Egg white lysozyme activity at 500 μM [5]: 100%

Source: patent US8207175B2, “Inhibitor compounds” (University Court of the University of Dundee, priority 2005, dated 2012)
